Source: patent US20200222474A1, “COMPOSITIONS AND METHODS FOR INCREASING PHYTOCHEMICAL BIOAVAILABLITY AND BIOACTIVITY” (North Carolina State University, priority 2017, published 2020)

Experiments:
Type in all cases: cell-based, Lactobacillus acidophilus
L. acidophilus NCFM [1] = experiment: Growth of L. acidophilus NCFM on plant glycosides as single carbon source (OD600); details: for Growth (OD600 max class) of L. acidophilus NCFM: SDM + 1% (w/v) carbohydrate (0.5% esculin), 37° C., 30 hours, corrected to medium without carbohydrate; for OD600 max: single carbon source, 200 μl cultures, 96 microtitre plates, corrected for medium without carbon source
Experimental: (§1) For initial growth and gene expression studies, L. acidophilus NCFM was propagated three times in semi-defined medium (SDM) supplemented with either 1% or 0,5% (w/v) of the plant glycoside or carbohydrate (Table 1). For the RNA-seq analysis, cells were harvested by centrifugation (3,220×10 min, 25° C.) in the mid-exponential phase (OD600=0.6-0.8) and stored at −80° C. for subsequent RNA isolation. For the mass spectrometry metabolite analyses, 200 μt samples were taken at 0, 3, 6, 9, 12, and 24 hours of growth; cells were removed by centrifugation; and supernatants were stored at −80° C. for further analysis.
(§2) Phenotypic growth assays were performed using 1% (v/v) overnight cultures of L. acidophilus strains (Table 2) and other Lactobacillus species (Table 3) grown on SDM supplemented with 1% (w/v) glucose to inoculate 200 μL of SDM supplemented with 1% (w/v) of the examined carbohydrate (0.5% in the case of esculin) in 96-well microplate wells (Corning Costar, Corning, N.Y., USA) in duplicate or triplicate wells, respectively. The microplates were sealed with clear adhesive film, incubated at 37° C. in a Fluostar Optima microplate reader (BMG Labtech, Cary, N.C., USA), and the cell optical density (OD600) was monitored for 30 hours.
The growth of L. acidophilus NCFM was evaluated on twelve chemically diverse, nutritionally relevant and/or therapeutically active PGs 1; Table 1). FIG. 1A provides the structures and common sources of plant glycoside substrates described herein. The compounds that support growth of Lactobacillus acidophilus are in green. RI: β-D-Glcp; R2: Gentiobioside (β-D-Glcp-(1,6)-D-Glcp); R3: Rutinoside (α-L-Rhaf-(1,6)-D-Glcp). The graph in FIG. 1B depicts plant glycoside utilization analyzed by mass spectrometry and the growth as the maximum OD600. Due to the low solubility of polydatin, OD600 cannot be used as a growth metric and utilization of this compound is confirmed by the production of lactate as well as a high utilization level based on the metabolite analysis.

L. acidophilus NCFM [2] = experiment: Plant glycoside uptake and metabolite analysis of L. acidophilus NCFM culture supernatants by UHPLC-DAD-Q-TOF-MS; details: for aglycone / main metabolite identified in culture supernatant: L. acidophilus NCFM growing on the glycoside, up to 24 h; for order of depletion from equimolar mixture of salicin, esculin and amygdalin: culture supernatants, 24 hours growth; for Catabolism based on MS: qualitative: depletion of the plant glycoside and/or appearance of its metabolites
Experimental: as §1
Analysis of plant glycoside uptake from L. acidophilus NCFM culture supernatants using mass spectrometry. The supernatants of L. acidophilus NCFM cultures grown on amygdalin, arbutin, esculin or salicin as carbon sources were analyzed during 24 hours by ultra-high performance liquid chromatography-diode array detection-quadruple time of flight mass spectrometry (UHPLC-DAD-Q-TOF-MS). Samples were diluted 1:20 (v/v) with methanol and an injection volume of […] was used. Separation was carried out on an Agilent Poroshell 120 phenyl-hexyl column (2.1×150 mm, 2.7 μm) using the Agilent Infinity 1290 UHPLC system (Agilent Technologies, Santa Clara, Calif., USA) equipped with a UV/vis spectrum diode array detector. Separation was performed at 0.35 mL min-1., 60° C. with a linear gradient consisting of water (A) and acetonitrile (B) both buffered with 20 mM formic acid, starting at 10% B and increased to 100% in 15 min where it was held for 2 min, returned to 10% in 0.1 min and kept for 3 min. MS detection was performed on an Agilent 6550 iFunnel QTOF MS equipped with Agilent Dual Jet Stream electrospray ion source with the drying gas temperature of 160° C. and gas flow of 13 L min^−1, whereas the sheath gas temperature was 300° C. and flow was 16 L min-1. Ionization was conducted in ESI-mode with capillary voltage set to 4000 V and nozzle voltage to 500 V. Mass spectra were recorded as centroid data for m/z 85-1700 in MS mode with an acquisition rate of 10 spectra s^−1. To avoid carry-over, the needle seat was back-flushed for 15 s at 4 mL min-1 with each of: i) isopropanol: 0.2% ammonium hydroxide (w/v) in water (1:1 v/v); ii) acetonitrile with 2% formic acid (w/v); iii) water with 2% formic acid. Data was processed with the Agilent Mass Hunter Qualitative Analysis B.07.00 software package (Agilent Technologies) and molar concentrations were obtained from standard curves of the plant glycosides and their main metabolites. Targeted compound searches were performed using lists of previously identified compounds plus standard chemical modifications.

NCK2422 (ΔLBA0725) = experiment: Phenotypic growth analysis of deletion mutant (PTS EIICBA); details: for growth of the ΔLBA0725 mutant (inactive PTS EIICBA): compared with background Δupp strain
Experimental: as §2
Construction of gene deletion mutants. The L. acidophilus NCFM genes LBA0225 and LBA0726, both encoding P-Bgl of glycoside hydrolase family 1 (GH1) enzymes in addition to the LBA0227 and LBA0725 genes encoding an EIIC and an EIICBA components of two PTS systems, respectively, were deleted using the upp-based counterselectable gene replacement system. Briefly, in-frame deletions were constructed by amplifying 650-750 bp of the up- and downstream flanking regions of the deletion targets with two primer pairs (e.g., LBA0225A/LBA0225B and LBA0225C/LBA0225D; Table 4). The resulting purified products were joined by splicing using overlap extension PCR (SOE-PCR63) and amplified to establish the deletion alleles. The SOE-PCR products, that include flanking restriction enzyme sites, were cloned within the BamHI and SacI/EcoRI sites of the pTRK935 integration vector and transformed into E. coli EC101. The resulting recombinant plasmids (pTRK1113-6) were confirmed by DNA sequencing and electroporated into L. acidophilus NCK1910 (Table 2) that contains the pTRK669 helper plasmid, and the recovery of the single- and double-crossover recombinants was performed as previously described. Recombinants carrying the new gene deletion alleles were isolated by colony PCR using primer pairs denoted up/down (e.g., LBA0225up/LBA0225down), which anneal to the flanking regions of the amplicons. Sequence integrity and in-frame deletions were verified by DNA sequencing employing the aforementioned primer pairs and primer denoted mid (e.g., LBA0225mid). The mutations were in-frame deletions of 90-96% of the coding regions.
To establish the functional significance of these two loci, single deletions of each PTS EII and P-Bgl gene, and a double deletion of both P-Bgl genes were constructed using the upp-based counter-selectable gene replacement system (Table 2) and the growth phenotypes of the mutant strains were analyzed (FIG. 3). Phenotypic growth analyses of deletion mutants of EII PTS transporters (FIGS. 3A, 3C, 3E, 3G, and 3I) and phospho-β-glucosidase (FIGS. 3B, 3D, 3F, 3H, and 3J) on the β-glucosides esculin, salicin, amygdalin and the disaccharides gentiobiose and cellobiose. The background Aupp strain is shown as a grey fill graph and the growth of the mutant strains is shown as: PTS EIIC (LBA0227, pink triangle), the phospho-β-glucosidase (LBA0225, light blue triangles), the PTS EIICBA (LBA0725, yellow squares), the second phospho-β-glucosidase (LBA0726, lilac squares) and the double phospho-β-glucosidase mutant (LBA0225/LBA0726, black stars). The color scheme is consistent with that used for the gene loci in FIG. 2.

[3] = growth concentration 0.5% (w/v)

SMILES | Growth (OD600 max class) of L. acidophilus NCFM (L. acidophilus NCFM [1]) | OD600 max (L. acidophilus NCFM [1]; growth concentration 1% (w/v)) | aglycone / main metabolite identified in culture supernatant (L. acidophilus NCFM [2]) | order of depletion from equimolar mixture of salicin, esculin and amygdalin (L. acidophilus NCFM [2]) | Catabolism based on MS (L. acidophilus NCFM [2]; growth concentration 1% (w/v)) | growth of the ΔLBA0725 mutant (inactive PTS EIICBA) (NCK2422 (ΔLBA0725)) | OD600 max (L. acidophilus NCFM [1]; [3]) | Catabolism based on MS (L. acidophilus NCFM [2]; [3]) | fraction of the initial glycoside utilized (L. acidophilus NCFM [2]; during 24 hours growth, single carbon source) | reduction of growth on inactivation of the EIICBA (LBA0725) (NCK2422 (ΔLBA0725))
OCc1ccccc1O[C@@H]1O[C@H](CO)[C@@H](O)[C@H](O)[C@H]1O [Salicin] | +++ (“+++” signifies OD600 max > 0.6.) | 0.8 | salicyl alcohol | first compound to be fully depleted | Yes | abolished | – | – | – | –
O=c1ccc2cc(O[C@@H]3O[C@H](CO)[C@@H](O)[C@H](O)[C@H]3O)c(O)cc2o1 [Esculin] | ++ (“++” signifies 0.6 > OD600 max > 0.3.) | – | esculetin | – | – | abolished | 0.4 | Yes | – | –
N#C[C@H](O[C@@H]1O[C@H](CO[C@@H]2O[C@H](CO)[C@@H](O)[C@H](O)[C@H]2O)[C@@H](O)[C@H](O)[C@H]1O)c1ccccc1 [Amygdalin] | + (“+” signifies 0.3 > OD600 max > 0.1.) | 0.3 | benzaldehyde | significant amounts of amygdalin persisted after 24 hours | Yes | severely reduced | – | – | about a third | about 50%
